Measurements: patent US12338279B2, “Selective and potent inhibitory antibodies of myostatin activation” (SCHOLAR ROCK, INC., priority 2022, dated 2025)

Assays:
Format in all cases: in vivo, mouse
[1] = test system: total myostatin in serum; assay: Circulating total myostatin in serum (acidification ELISA), dexamethasone model; conditions: as compared to apitegromab
Excerpt: Briefly, serum samples were acidified at low pH (e.g., pH ˜2.5) to dissociate the bound antibody from the immune complex and to convert all myostatin in the sample to the active form of growth factor (i.e., mature myostatin). Samples were then neutralized and assayed for the presence of mature myostatin on ELISA plates coated with anti-mature myostatin antibodies as capture reagents.

[2] = test system: male C57/BL6 mice on high fat diet; assay: Diet-induced obesity model, semaglutide with Ab109, withdrawal and continuous arms (Example 6); conditions: for Relative Fat Mass Day 63 (% Body Fat): 60%/45% high fat diet
Experimental: Male C57/BL6 male mice (n=8/group) were either fed regular mouse chow (Group 1) or placed on a 60% high fat diet at six weeks of age and maintained on the 60% high fat diet until 21 weeks of age (Groups 2-8), at which time the study began (day 0). On day 0, animals in groups 2-8 were switched to a 45% high fat diet and maintained on the 45% high fat diet until the animals were terminated. […] Body weight was measured three times per week and qNMR measurements of lean mass and fat mass were obtained on the days set forth.
Animals in groups 3 and 4 were dosed with semaglutide weekly for 14 days, then terminated. Animals in groups 5 and 6 (weight regain groups), were treated with semaglutide for 35 days, then the semaglutide treatment was ended while the myostatin activation inhibiting antibody treatment continued until the animals were terminated on day 63. The animals in Groups 7 and 8 were treated with semaglutide for 63 days, i.e., they remained on semaglutide until the study terminated on day 63.
At termination, left and right gastrocnemius muscles were removed and frozen; the liver was weighed, one lobe was fixed, and the remainder was frozen; epididymal adipose tissue was removed and weighed; subcutaneous adipose tissue was removed and weighed; and a terminal serum bleed was obtained.

[3] = test system: male C57/BL6 mice on high fat diet; assay: Diet-induced obesity model, Ab109 with 0.01 or 0.04 mg/kg semaglutide (Example 9); conditions: for loss in quadriceps weight: FIG. 21A
Experimental: Male C57/BL6 male mice (n=8/group) were placed on a 60% high fat diet at ˜6 weeks of age and maintained on the 60% high fat diet until 21 weeks of age (Groups 1-12), at which time the study began (day −7). On day −7, animals in groups 1-12 were switched to a 45% high fat diet and maintained on the 45% high fat diet until the animals were terminated. […] Body weight was measured three times per week and qNMR measurements of lean mass and fat mass were obtained pre-dose on day 0 and on days 7, 14 and 21. Fasting glucose was measured on day 18 after a 4 hour fast.
Animals in groups 3-12 were dosed with semaglutide daily for 3 weeks, then terminated. Animals in groups 1, 3, and 4 were treated with IgG control antibody, and those in groups 2, 5-12 were treated with myostatin activation inhibiting antibody treatment, for 3 weeks.
At termination, left gastrocnemius and quadriceps muscles were removed and frozen; the liver was weighed, one lobe was frozen; epididymal (perigonadal) adipose tissue was removed and weighed; inguinal (subcutaneous) adipose tissue was removed and weighed; and a terminal serum bleed was obtained.

[4] = test system: circulating leptin; assay: Circulating leptin (U-PLEX Metabolic Hormones Combo 1), Example 6; conditions: for Leptin Day 64 (circulating leptin): 60%/45% high fat diet
Experimental: Circulating leptin was measured using the U-PLEX Metabolic Hormones Combo 1 (mouse) according to manufacturer's instructions (Meso Scale Diagnostics, #K15306K-2). As expected, circulating leptin was higher in animals fed the high fat diet than animals fed a standard chow.

[5] = semaglutide 0.04 mg/kg day 7-35 (regain arm) with control hIgG
[6] = semaglutide 0.04 mg/kg day 7-63 with control hIgG
[7] = semaglutide 0.04 mg/kg and hIgG

Substance	accumulation of total or latent myostatin in serum samples from dosed subjects [1]	Relative Fat Mass Day 63 (% Body Fat) [2, 5]	Relative Fat Mass Day 63 (% Body Fat) [2, 6]	lean mass lost while on semaglutide [2, 7]	net loss of lean mass at the end of the study [2, 7]	fat mass ([2]; semaglutide 0.04 mg/kg, FIG. 14D)	loss in lean mass ([3]; 0.01 mg/kg semaglutide, FIG. 20B)	lean mass lost ([3]; 0.04 mg/kg semaglutide and hIgG, 3 weeks, FIG. 20A)	loss in quadriceps weight ([3]; semaglutide high dose (0.04 mg/kg))	loss in quadriceps weight ([3]; semaglutide low dose (0.01 mg/kg))	Leptin Day 64 (circulating leptin) [4, 5]	Leptin Day 64 (circulating leptin) [4, 6]	circulating leptin ([4]; treatment arm as in the words, FIG. 14K)
apitegromab: prior art myostatin-selective activation inhibitor antibody targeting pro/latent myostatin [reference compound]	increased accumulation	–	–	–	–	–	–	–	–	–	–	–	–
semaglutide [reference compound]	–	28.69 % Body Fat	14.84 % Body Fat	about 4%	2.5%	induced fat mass loss	4.7%	about 9.5%	−7.6%	−4.8%	37.87 ng/mL	6.357 ng/mL	Continuous semaglutide administration lowered circulating leptin
